# Laboratory results as given in PMC10337483 (Biochemistry, 2022).
# Entries after “also recorded” stand apart in the source; their conditions may differ.
# Legend:
# [1] = tested on: BV2 microglial cells stimulated with LPS; assay: IL-6 level by ELISA in BV2 microglial cells stimulated with LPS; type: cell-based; conditions: for effect on IL-6 level (pro-inflammatory activity): 0–5 μM, LPS-stimulated BV2, in words; for IL-6 expression (ELISA): 5 μM, LPS-stimulated BV2
# [2] = tested on: BV2 microglial cells stimulated with LPS; assay: IL-10 level by ELISA in BV2 microglial cells stimulated with LPS; type: cell-based; conditions: for expression of the anti-inflammatory cytokines: 5 μM, in words; for effect on IL-10 levels: 0–5 μM, LPS-stimulated BV2, in words; for levels of IL-10 (ELISA): LPS-stimulated BV2, 5 μM implied
# [3] = type: in vivo, mouse; conditions: for concentration of metabolite formed, detected in plasma: mice given CBG 20 mg/kg, after 0.5 h
# [4] = after 0.5 h; cited from earlier work
# CYP2D6 [5] = target: T1, CYP2D6 (Homo sapiens, UniProt P10635); assay: biochemical
# CYP2D6 [6] = target: T1, CYP2D6
# CYP2C8 [7] = conditions: human
# CYP3A4 = CYP3A4 (Homo sapiens, UniProt P08684); assay: Spectral
# [8] = tested on: BV2 microglial cells stimulated with LPS; assay: Nitric oxide level in BV2 microglial cells stimulated with LPS; type: cell-based; conditions: highest reduction among analogs (Figure S8)
# [9] = tested on: CYP2J2, 3A4, 2D6, 2C9 and 2C8; type: in vitro ADME; conditions: human
# CYP2C8 [10] = assay: Spectral; conditions: presence versus absence of CBG
# [11] = tested on: human liver microsomes (HLM); assay: CBG metabolism by human liver microsomes, targeted mass spectrometry; type: in vitro ADME
# T1 sequence (P10635 whole entry): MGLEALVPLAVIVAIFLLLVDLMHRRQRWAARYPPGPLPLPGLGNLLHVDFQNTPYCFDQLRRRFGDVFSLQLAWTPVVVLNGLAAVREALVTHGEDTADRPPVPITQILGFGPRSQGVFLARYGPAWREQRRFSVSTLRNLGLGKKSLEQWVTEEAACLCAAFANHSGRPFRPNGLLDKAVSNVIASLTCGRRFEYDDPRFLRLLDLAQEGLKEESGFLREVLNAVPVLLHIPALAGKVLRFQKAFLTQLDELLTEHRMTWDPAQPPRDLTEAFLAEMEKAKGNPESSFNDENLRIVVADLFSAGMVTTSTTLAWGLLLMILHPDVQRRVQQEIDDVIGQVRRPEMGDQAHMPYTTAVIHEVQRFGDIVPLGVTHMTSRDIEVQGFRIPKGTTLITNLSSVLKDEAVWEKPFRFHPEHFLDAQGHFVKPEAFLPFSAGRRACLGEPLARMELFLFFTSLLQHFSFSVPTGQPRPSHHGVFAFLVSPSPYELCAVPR
# Sequence of CYP3A4 (P08684 whole entry): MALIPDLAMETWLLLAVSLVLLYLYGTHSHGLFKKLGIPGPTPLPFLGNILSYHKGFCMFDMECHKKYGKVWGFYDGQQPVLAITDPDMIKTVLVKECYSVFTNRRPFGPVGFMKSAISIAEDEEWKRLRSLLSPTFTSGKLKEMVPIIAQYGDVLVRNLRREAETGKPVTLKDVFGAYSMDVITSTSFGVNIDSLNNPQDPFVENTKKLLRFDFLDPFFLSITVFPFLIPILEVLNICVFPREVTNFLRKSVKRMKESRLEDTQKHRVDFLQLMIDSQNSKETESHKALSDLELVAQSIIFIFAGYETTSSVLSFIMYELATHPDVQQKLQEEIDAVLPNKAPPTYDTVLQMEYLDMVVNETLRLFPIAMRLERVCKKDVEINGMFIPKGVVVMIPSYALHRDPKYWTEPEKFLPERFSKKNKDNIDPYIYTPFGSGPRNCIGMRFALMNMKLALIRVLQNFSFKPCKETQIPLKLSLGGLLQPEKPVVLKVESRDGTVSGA
smiles,measurement,setting,value
"CCCCCc1cc(O)c(CC(O)C(C)(O)CCC=C(C)C)c(O)c1 (stereo not shown) [2′,3′-dihydroxy-CBG, 2′,3′-dihydroxy CBG]",effect on IL-6 level (pro-inflammatory activity),[1],concentration dependent reduction in IL-6 level
same,expression of the anti-inflammatory cytokines,[2],maximum expression of the anti-inflammatory cytokines
"CCCCCc1cc(O)c(C/C=C(\C)CCC2OC2(C)C)c(O)c1 (stereo not shown) [6′,7′-epoxy-CBG]","concentration of metabolite formed, detected in plasma",[3],7.5 nM
same,effect on IL-6 level (pro-inflammatory activity),[1],lowering in IL-6 expression
same,effect on IL-10 levels,[2],concentration dependent increase in IL-10 levels
"C=C(C)[C@@H]1CCC(C)=C[C@H]1c1c(O)cc(CCCCC)cc1O [CBD, cannabidiol]",level in human blood plasma,[4],~ 0.14 μM
"CCCCCc1cc(O)c(C/C=C(\C)CCC=C(C)C)c(O)c1 [CBG, Cannabigerol]",Ki,CYP2D6 [5],10 to 20 µM
same,Ks for CBG binding lower than for TDZ binding,CYP2D6 [6],~3.5 times
same,Ks of CBG higher than for CYP2J2,CYP2D6 [6],~3 times
same,Ks of CBG higher than for CYP2J2,CYP2C8 [7],~3 times
same,Ki,CYP3A4,10 to 20 µM
same,concentration at 0.5 h,"[3]; female, mouse, in vivo",500 to 700 nM
same,concentration at 2 h,"[3]; female, mouse, in vivo",~50 nM
same,effect on IL-6 level (pro-inflammatory activity),[1],concentration dependent reduction in IL-6 level
same,IL-6 expression (ELISA),[1],414.2±75.2
same,% NO level,[8],64.1±5.9%
same,"Km for formation of cyclo-CBG, CYP2J2 relative to 2D6 and 2C8",[9],1.5–2 times
same,effect on IL-10 levels,[2],concentration dependent increase in IL-10 levels
same,expression of the anti-inflammatory cytokines,[2],maximum expression of the anti-inflammatory cytokines
same,levels of IL-10 (ELISA),[2],236.03±12.35
"CC1=C(/C=C/C(C)=C/C=C/C(C)=C/C(=O)O)C(C)(C)CCC1 [RTA, all trans-retinoic acid]",increase of Ks on addition of RTA to CBG-bound CYP,CYP2C8 [10],~ 1.3 times
same,increase of ΔAmax on addition of RTA to CBG-bound CYP,CYP2C8 [10],~ 1.2 times
"CCCCCc1cc(O)c2c(c1)OC(C)(C)[C@@H]1CCC(C)=C[C@@H]21 [THC, Δ^9-tetrahydrocannabinol]",level in human blood plasma,[4],~ 0.06 μM
"C[C@]12CC[C@H]3[C@@H](CCC4=CC(=O)CC[C@@]43C)[C@@H]1CC[C@@H]2O [TST, testosterone, reference compound]",TST binds more strongly as compared to CBG,"CYP3A4; direct binding, TST versus CBG",~5 times
"CCCCCc1cc(O)c(C/C=C(\C)CCC(O)C(C)(C)O)c(O)c1 (stereo not shown) [carmagerol, 6′,7′-dihydroxy CBG]",effect on IL-6 level (pro-inflammatory activity),[1],lowering in IL-6 expression; also recorded: highest reduction in the pro-inflammatory activity
same,IL-6 expression (ELISA),[1],307.8±159.1
same,% NO level,[8],60.0±6.03%
same,effect on IL-10 levels,[2],concentration dependent increase in IL-10 levels
same,levels of IL-10 (ELISA),[2],159.5±16.7
CCCCCc1cc(O)c2c(c1)OC(C)(CCC=C(C)C)C(O)C2 (stereo not shown) [cyclo-CBG],"concentration of metabolite formed, detected in plasma",[3],1500 nM
same,"amount of cyclo-CBG relative to 6′,7′-epoxy-CBG in plasma",[3]; plasma of CBG treated mice,~ 100 times
same,"amount of cyclo-CBG produced relative to 6′,7′-epoxy-CBG",[11],~ 100 fold
"CCCCCc1cc(O)c(C/C=C(\C)CC/C=C(\C)CCC=C(C)C)c(O)c1 [sCBG, sesqicannabigerol]",effect on IL-6 level (pro-inflammatory activity),[1],concentration dependent reduction in IL-6 level
same,bioactivity compared to CBG metabolites having polar functional groups,"[1]; inflammatory cytokines in BV2 model, in words",does not significant bioactivity
